Common to all, as to assay: inhibition of tumour cell growth, NCI panel, 48 h
Test [1] has as its system TK-10 renal.
Test [2] concerns OVCAR-5 ovarian.
The subject of test [3] is A549 NSCLC.
Test [4] has as its system SN12C renal.
The test system of test [5] is A498 renal.
Test [6] has as its system SF-539 CNS.
For test [7], the system named is HL-60(TB) leukemia.
The subject of test [8] is CAKI-1 renal.
The subject of test [9] is SW-620 colon.
In test [10] the test system is BT-549 breast.

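Cultured in 96-well plates, cells were exposed to test compound for 48 hours across five concentrations. GI50: concentration for 50% inhibition of growth. TGI: total growth inhibition.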

For the compound `O=C(Nc1ccncc1)C(=O)c1cn(Cc2ccc(Cl)cc2)c2ccccc12`, the GI50 in [1] was 457 nM; in test [2], 223 nM; in test [3], 399 nM; in test [4], 72.5 nM; in test [5] it was 544 nM; in test [6], 27.8 nM. In addition, the GI50 in test [7] is 32.7 nM; in [8], 0.0355 µM; in test [9], 33.2 nM. For the same compound, the TGI in test [1] was more than 100 µM; in test [2], more than 100 µM; in test [3] it was more than 100 µM; in test [4], more than 100 µM; in test [5], more than 100 µM; in test [6], 0.0788 µM. For the same compound, the TGI in test [7] is 0.237 µM; in [8] it was more than 100 µM; in [9], more than 100 µM.

In the case of `Cc1cc(C(=C2C=CC(=Nc3ccccc3)C=C2)c2ccc(Nc3ccccc3)cc2)ccc1N`, the GI50 in test [1] is 359 nM; in test [2] it was 245 nM; in test [10], 1.06 µM; in test [3], 599 nM; in test [4], 310 nM; in test [5] it was 543 nM. The GI50 is 328 nM in test [6] and 290 nM in test [9]. Further, the TGI was determined as 1.11 µM in test [1]; 0.671 µM in test [2]; 2.26 µM in test [10]; 1.69 µM in [3]; 1.48 µM in test [4]; 1.86 µM in test [5]. Besides, the results for the TGI in test [6] and in [9] were 1.16 µM and 1.05 µM, respectively.

With `CCOC1=C2C(=O)OC(=O)C2C2CCCCC2=C1` (stereo unspecified), the TGI in [1], in test [3], in test [4], in [6], in test [7] and in test [8] was more than 100 µM each time. In test [9], this compound registered a TGI of more than 100 µM.

As for `O=c1c2ccccc2c(=O)n2n1CC=CC2`, the TGI in test [1], in test [2], in [3], in [4], in test [5] and in test [6] was more than 100 µM in each case. Further, the TGI in test [7], in test [8] and in [9] was more than 100 µM in each case.

As for `CC(C)CCCC(C)[C@H]1CCC2[C@@H]3CCC4Nc5nocc5C[C@]4(C)C3CC[C@@]21C` (stereo partly specified), the TGI was 21.1 µM in test [1]; 54.8 µM in test [3]; 33.8 µM in [4]; 36.1 µM in [5]; 33.5 µM in test [6]; 27.6 µM in [7]. Besides, the TGI is 29 µM in test [8] and 31.4 µM in test [9].

In the case of `N.N.N.N.N.[Cl-].[Co+3].c1ccc(-c2nn[n-]n2)cc1`, the GI50 in [1], in test [2], in test [3], in test [4], in test [6] and in test [7] was more than 100000 nM each time. Moreover, the GI50 in test [8] is more than 100 µM; in test [9], more than 100000 nM. The TGI in test [1], in test [2], in [3], in test [4], in [6] and in test [7] was more than 100 µM each time. Moreover, the TGI in test [8] and in [9] was more than 100 µM throughout.

Turning to `COCC(O)Cn1ccnc1[N+](=O)[O-]` (stereo unspecified), the TGI in [1], in test [2], in [3], in test [4], in test [6] and in test [7] was more than 100 µM each time. Moreover, the TGI in test [8] and in [9] was more than 100 µM each time.

For `O=C1Nc2nc3ccccc3n2N=C2CCCC12` (stereo unspecified), the TGI in test [1], in test [2], in test [3], in test [4], in test [5] and in test [6] was more than 100 µM each time. Besides, the TGI in [8] and in [9] was more than 100 µM throughout.

With `O=C1C2C3C=C4c5ccccc5N(c5ccccc5)C4(C2C(=O)N1c1ccc(Cl)cc1)[C@H]1C(=O)N(c2ccc(Cl)cc2)C(=O)[C@@H]31` (stereo partly specified), the TGI in test [1], in test [2], in test [3], in test [4], in test [5] and in test [6] was more than 100 µM each time. Moreover, the TGI in [7] was more than 100 µM; in test [8], 76.3 µM; in test [9] it was more than 100 µM.

Regarding `O=c1oc(Cl)c(Cl)c2ccccc12`, the GI50 in test [1] is 82500 nM; in test [2], 18700 nM; in [10], 20.8 µM; in test [3] it was 54200 nM; in test [4], 14800 nM; in [6] it was 17000 nM. For the same compound, the GI50 in [8] was 21.5 µM; in [9], 19700 nM. The TGI is more than 100 µM in test [1]; 57.1 µM in test [2]; 41.2 µM in test [10]; more than 100 µM in test [3]; 31.4 µM in [4]; 38.5 µM in [6]. Also, the TGI in [8] was 39.6 µM; in test [9], 56.3 µM.

As to `O=C(O/C(=C(/N=Nc1ccccc1)c1ccccc1)c1ccccc1)c1ccccc1`, the TGI in [1], in [2], in test [3], in test [4], in test [6] and in test [8] was more than 100 µM throughout. In addition, the TGI in test [9] is more than 100 µM.

`COc1cc([C@@H]2c3cc4c(cc3[C@@H](OC(=O)c3ccc(N)cc3)C3COC(=O)[C@@H]32)OCO4)cc(OC)c1O` (stereo partly specified): the TGI in [1] was 94.2 µM; in test [2], more than 95 µM; in [3], 28.1 µM; in [4], 40.1 µM; in [5], 31.5 µM; in test [6] it was 7.99 µM. The TGI in test [7] was 22.2 µM; in [8], more than 95 µM; in [9], more than 95 µM.

The values above are taken from PubChem BioAssay (NCI).
